Measurements taken from the NIST ThermoML archive (doi:10.1021/je060271a).
± gives the expanded uncertainty stated by the source.

Settings: 323.14 K, Liquid, Vibrating tube method

CCCC(=O)OCC(COC(=O)CCC)(COC(=O)CCC)COC(=O)CCC [pentaerythritol tetrabutyrate]
Settings | mass density [kg/m3]
17664 kPa | 1037.3 ± 1.2
17706 kPa | 1037.2 ± 1.3
17742 kPa | 1037.4 ± 1.2
17779 kPa | 1037.3 ± 1.2
17823 kPa | 1037.3 ± 1.2
17860 kPa | 1037.3 ± 1.2
17896 kPa | 1037.3 ± 1.2
17933 kPa | 1037.5 ± 1.2
17977 kPa | 1037.4 ± 1.2
18014 kPa | 1037.5 ± 1.2
18060 kPa | 1037.4 ± 1.2
18099 kPa | 1037.5 ± 1.2
18137 kPa | 1037.5 ± 1.2
18184 kPa | 1037.6 ± 1.2
18224 kPa | 1037.5 ± 1.2
18264 kPa | 1037.7 ± 1.2
18304 kPa | 1037.6 ± 1.2
18346 kPa | 1037.8 ± 1.2
18376 kPa | 1037.8 ± 1.2
18470 kPa | 1037.7 ± 1.2
18504 kPa | 1037.6 ± 1.2
18534 kPa | 1037.7 ± 1.2
18564 kPa | 1037.8 ± 1.2
18600 kPa | 1037.9 ± 1.2
18629 kPa | 1037.8 ± 1.3
18660 kPa | 1037.9 ± 1.2
18695 kPa | 1037.8 ± 1.2
18793 kPa | 1037.9 ± 1.2
18818 kPa | 1038 ± 1.2
18855 kPa | 1038 ± 1.2
18891 kPa | 1038 ± 1.3
18922 kPa | 1037.9 ± 1.2
18954 kPa | 1038 ± 1.2
18986 kPa | 1038.2 ± 1.3
19023 kPa | 1038 ± 1.3
19055 kPa | 1038 ± 1.3
19093 kPa | 1038.2 ± 1.2
19125 kPa | 1038.1 ± 1.3
19157 kPa | 1038.1 ± 1.3
19219 kPa | 1038.2 ± 1.3
19363 kPa | 1038.3 ± 1.3
19716 kPa | 1038.6 ± 1.3
19756 kPa | 1038.7 ± 1.3
19790 kPa | 1038.6 ± 1.3
19824 kPa | 1038.7 ± 1.3
19866 kPa | 1038.6 ± 1.3
19901 kPa | 1038.7 ± 1.3
19935 kPa | 1038.8 ± 1.3
20012 kPa | 1038.8 ± 1.3
20274 kPa | 1038.9 ± 1.3
20318 kPa | 1038.9 ± 1.3
20356 kPa | 1038.9 ± 1.3
20392 kPa | 1038.9 ± 1.3
20429 kPa | 1039.1 ± 1.3
20472 kPa | 1039.1 ± 1.3
20510 kPa | 1039 ± 1.3
20629 kPa | 1039.2 ± 1.3
20667 kPa | 1039.1 ± 1.3
20706 kPa | 1039.2 ± 1.3
20751 kPa | 1039.2 ± 1.3
20789 kPa | 1039.2 ± 1.3
20828 kPa | 1039.3 ± 1.3
20869 kPa | 1039.3 ± 1.3
20908 kPa | 1039.4 ± 1.3
20954 kPa | 1039.3 ± 1.3
20992 kPa | 1039.4 ± 1.3
21039 kPa | 1039.3 ± 1.3
21079 kPa | 1039.4 ± 1.3
21117 kPa | 1039.6 ± 1.3
21156 kPa | 1039.4 ± 1.3
21204 kPa | 1039.5 ± 1.3
21243 kPa | 1039.5 ± 1.3
21283 kPa | 1039.5 ± 1.3
21333 kPa | 1039.5 ± 1.3
21374 kPa | 1039.6 ± 1.3
21416 kPa | 1039.6 ± 1.3
21465 kPa | 1039.7 ± 1.3
21508 kPa | 1039.7 ± 1.3
21593 kPa | 1039.7 ± 1.3
22639 kPa | 1040.4 ± 1.3
22677 kPa | 1040.4 ± 1.3
22723 kPa | 1040.4 ± 1.3
22761 kPa | 1040.5 ± 1.3
22807 kPa | 1040.5 ± 1.3
22845 kPa | 1040.5 ± 1.3
22884 kPa | 1040.5 ± 1.3
22932 kPa | 1040.5 ± 1.3
22972 kPa | 1040.6 ± 1.3
23010 kPa | 1040.7 ± 1.3
23051 kPa | 1040.6 ± 1.3
23098 kPa | 1040.7 ± 1.3
23137 kPa | 1040.7 ± 1.3
23185 kPa | 1040.7 ± 1.3
23224 kPa | 1040.8 ± 1.3
23265 kPa | 1040.8 ± 1.3
23314 kPa | 1040.8 ± 1.3
23354 kPa | 1040.9 ± 1.3
23396 kPa | 1040.8 ± 1.3
23445 kPa | 1040.8 ± 1.3
23487 kPa | 1041 ± 1.3
23528 kPa | 1040.9 ± 1.3
23578 kPa | 1041 ± 1.3
23620 kPa | 1041 ± 1.3
23662 kPa | 1041.1 ± 1.3
23705 kPa | 1041 ± 1.3
23756 kPa | 1041.1 ± 1.3
23800 kPa | 1041.1 ± 1.3
24059 kPa | 1041.3 ± 1.3
24170 kPa | 1041.4 ± 1.3
24213 kPa | 1041.4 ± 1.3
24248 kPa | 1041.5 ± 1.3
24441 kPa | 1041.6 ± 1.3
24478 kPa | 1041.6 ± 1.3
24516 kPa | 1041.6 ± 1.3
24554 kPa | 1041.6 ± 1.3
24598 kPa | 1041.7 ± 1.3
24634 kPa | 1041.6 ± 1.3
24671 kPa | 1041.6 ± 1.3
24708 kPa | 1041.8 ± 1.3
24752 kPa | 1041.8 ± 1.3
24955 kPa | 1041.8 ± 1.3
24993 kPa | 1041.9 ± 1.3
25031 kPa | 1041.9 ± 1.3
25070 kPa | 1041.9 ± 1.3
25108 kPa | 1041.9 ± 1.3
25155 kPa | 1042.1 ± 1.3
25193 kPa | 1042 ± 1.3
25232 kPa | 1042 ± 1.3
25278 kPa | 1042 ± 1.3
25825 kPa | 1042.4 ± 1.3
25865 kPa | 1042.5 ± 1.3
25913 kPa | 1042.5 ± 1.3
25954 kPa | 1042.5 ± 1.3
25996 kPa | 1042.5 ± 1.3
26045 kPa | 1042.6 ± 1.3
26086 kPa | 1042.6 ± 1.3
26129 kPa | 1042.6 ± 1.3
26170 kPa | 1042.7 ± 1.3
26220 kPa | 1042.7 ± 1.3
26262 kPa | 1042.7 ± 1.3
26305 kPa | 1042.7 ± 1.3
26355 kPa | 1042.7 ± 1.3
26397 kPa | 1042.8 ± 1.3
26448 kPa | 1042.8 ± 1.3
26490 kPa | 1042.8 ± 1.3
26533 kPa | 1042.9 ± 1.3
